Data taken from PMC11969171 (Biomedicine & pharmacotherapy = Biomedecine & …, 2022).
Numbering of substitutions follows the chain as printed. Each block holds one molecule with its values, some of them ahead of it.

Legend:
[1] = biological target: T1, A1R^G279S (Homo sapiens, UniProt P30542, G279S); conditions: CPA 200 nM
T1 sequence (P30542 1-326 G279S): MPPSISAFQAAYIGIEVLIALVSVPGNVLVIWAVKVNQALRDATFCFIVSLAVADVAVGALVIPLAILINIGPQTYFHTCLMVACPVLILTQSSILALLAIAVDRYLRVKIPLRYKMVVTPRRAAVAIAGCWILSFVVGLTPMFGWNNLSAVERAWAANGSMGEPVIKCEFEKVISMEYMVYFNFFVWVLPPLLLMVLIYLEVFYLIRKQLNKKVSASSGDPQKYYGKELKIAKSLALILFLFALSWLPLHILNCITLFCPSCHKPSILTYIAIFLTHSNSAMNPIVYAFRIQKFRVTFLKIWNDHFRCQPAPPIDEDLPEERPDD

[2] = biological target: T2, A1R^wt (Homo sapiens, UniProt P30542); conditions: CPA 200 nM
T2 sequence (P30542 1-326): T1 sequence (P30542 1-326 G279S) with S279G

[3] = system: corticostriatal glutamate release; conditions: rats, local application, ref [64]; cited from earlier work
[4] = biological target: T2, A1R^wt; assay type: binding; conditions: saturating concentration of DPCPX (1 µM)
[5] = biological target: T1, A1R^G279S; assay type: binding; conditions: saturating concentration of DPCPX (1 µM)

functional coupling to Gα12/13, Gαs, β-arrestin2 or GRK2 [1]: No functional coupling | functional coupling to Gα12/13, Gαs, β-arrestin2 or GRK2 [2]: No functional coupling | time to peak of NL-generated signal ([2]; Gαi-LgBiT or Gαq-LgBiT, decline to basal after 1 h): 10 min
Compound: OC[C@H]1O[C@@H](n2cnc3c(NC4CCCC4)ncnc32)[C@H](O)[C@@H]1O [CPA, N6-cyclopentyladenosine]

Compound: OCCN(CCO)c1nc(N2CCCCC2)c2nc(N(CCO)CCO)nc(N3CCCCC3)c2n1 [dipyridamole]
basal and optogenetic-induced corticostriatal glutamate release [3]: significant decrease

displacement of CA200634 binding [4]: displaced | displacement of CA200634 binding [5]: displaced
Compound: CCCn1c(=O)c2[nH]c(C3CCCC3)nc2n(CCC)c1=O [DPCPX, 8-cyclopentyl-1,3-dipropylxanthine]
